Each structure is given as a SMILES string. Like-named read-outs stand apart in the source and are kept apart here. Where a SMILES comes first, the peptide text is derived from it. Bridges are numbered along the chain shown (N, C = ends).

Results on one compound are retold here after US20240108702A1, “Use Of Naturally Occurring Cyclic Peptides For Treatment Of SARS-COV-2 Infection” (The University of Southern California, priority 2021, published 2024).

The target of data set [1] is T1, TMPRSS2 (Homo sapiens, UniProt O15393). Description: Cellular TMPRSS2 inhibition assay in Calu3 cells. Further details: endogenous in cells; host or cells: Calu3 (Calu-3) cells. Type of data set: cell-based. The method, then: (§1) TMPRSS2 inhibition assays. Peptides (0-50 μg/ml) were tested for their inhibitory activities against TMPRSS2 in cellular assays using Vero E6 cells, Caco-2 cells, or Calu-3 cells using standard conditions. TMPRSS2 activity was assayed in real time for 120 min by monitoring the cleavage of the TMPRSS2 substrate, Boc-Leu-Gly-Arg-AMC. Following the 2 h enzyme assay, cells were evaluated for viability using the CellTiter-Glo cellular toxicity assay.

Data set [2] concerns the target T1, TMPRSS2. The data set is described as follows: Cellular TMPRSS2 inhibition assay in Caco-2 cells. Format: cell-based. Further details: using Caco-2 and Calu3 cells, both of which express surface TMPRSS2; endogenous in cells; host or cells: Caco-2 cells. The procedure:
Caco-2 cells (1×10^5 per well) were incubated in 96 well plates with 0 to 50 μg/ml of the indicated peptide in the presence of a TMPRSS2 substrate (Boc-Leu-Gly-Arg-AMC) in 50 mM Tris-HCl, pH 7.4. Substrate conversion was monitored in a fluorescence plate reader for 2 hours and inhibition of enzyme activity was expressed relative to a solvent control.
as §1

The conditions of data set [3]: rats.
A short description of data set [4]: in vivo. The settings on record: both, cynomolgus monkey, iv.

T1 sequence (O15393 whole entry): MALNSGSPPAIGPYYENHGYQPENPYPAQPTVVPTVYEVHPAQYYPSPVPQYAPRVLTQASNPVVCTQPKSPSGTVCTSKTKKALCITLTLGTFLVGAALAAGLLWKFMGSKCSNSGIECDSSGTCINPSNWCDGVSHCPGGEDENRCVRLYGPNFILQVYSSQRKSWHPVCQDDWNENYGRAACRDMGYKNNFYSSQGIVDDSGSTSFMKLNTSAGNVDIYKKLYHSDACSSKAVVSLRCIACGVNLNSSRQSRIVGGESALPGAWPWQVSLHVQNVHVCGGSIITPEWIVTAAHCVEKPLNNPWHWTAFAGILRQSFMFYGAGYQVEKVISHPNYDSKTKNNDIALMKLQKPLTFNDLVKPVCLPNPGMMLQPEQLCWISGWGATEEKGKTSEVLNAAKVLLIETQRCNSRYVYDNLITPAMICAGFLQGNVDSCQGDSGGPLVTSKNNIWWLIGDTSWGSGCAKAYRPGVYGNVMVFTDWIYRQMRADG

As usually defined, the IC50 is the concentration at which inhibition is half-maximal. Higher therefore signals a need for much substance. By NOAEL is commonly meant the highest tested level that showed no adverse finding. For `CC[C@H](C)[C@@H]1NC(=O)[C@@H]2CSSC[C@H](NC(=O)[C@H](CCCNC(=N)N)NC(=O)[C@@H]3CSSC[C@H](NC1=O)C(=O)N[C@@H]([C@@H](C)O)C(=O)N[C@@H](CCCNC(=N)N)C(=O)NCC(=O)N[C@@H](Cc1ccccc1)C(=O)N3)C(=O)N[C@@H](CC(C)C)C(=O)N[C@H]1CSSC[C@H](NC(=O)[C@H](C(C)C)NC(=O)CNC(=O)[C@H](CCCNC(=N)N)NC(=O)[C@H](CCCNC(=N)N)NC1=O)C(=O)N[C@@H](CCCNC(=N)N)C(=O)N2` [Peptide 1] (cyclo(GFCRCLCRRGVCRCICTR); disulfide 3-16, 5-14, 7-12), the IC50 in data set [1] and in data set [2] was 3.12 to 3.84 µM each time. For the same compound, the “AUCτ on Day 7 lower than AUC0-∞ on Day 1” value in data set [3] (5 mg/kg group) is given as 22%; in data set [3] (10 mg/kg group), 19%. The λz in data set [3] (5 mg/kg i.v., Day 1) was 0.056 h⁻¹; in data set [3] (5 mg/kg/day i.v., Day 7) it was 0.104 h⁻¹; in data set [3] (10 mg/kg i.v., Day 1), 0.148 h⁻¹; in data set [3] (10 mg/kg/day i.v., Day 7) it was 0.133 h⁻¹; in data set [3] (20 mg/kg i.v., Day 1), 0.221 h⁻¹. Moreover, the “plasma levels during recovery period” value in data set [3] (Day 25, all but one rat) was “undetectable”. Besides, in data set [4], the NOAEL at 10 days was found to be 15 mg/kg/day.
